Molecular target: T1, Human complement C1s enzyme (Homo sapiens, UniProt P09871)
T1 construct: purified from human serum, Complement Technology, Inc; purchased Complement Technology, Inc; host or cells: human serum (plasma-derived native protein)
T1 sequence (P09871 438-688 limits assumed): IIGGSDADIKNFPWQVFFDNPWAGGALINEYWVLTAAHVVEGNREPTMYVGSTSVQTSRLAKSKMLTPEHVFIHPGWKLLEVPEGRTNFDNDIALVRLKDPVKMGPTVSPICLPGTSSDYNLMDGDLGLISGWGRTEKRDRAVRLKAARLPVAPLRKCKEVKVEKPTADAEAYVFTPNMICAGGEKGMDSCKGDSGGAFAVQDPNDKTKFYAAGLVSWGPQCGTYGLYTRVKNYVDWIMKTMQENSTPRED
T1 sequence (P09871 16-437 partner limits assumed): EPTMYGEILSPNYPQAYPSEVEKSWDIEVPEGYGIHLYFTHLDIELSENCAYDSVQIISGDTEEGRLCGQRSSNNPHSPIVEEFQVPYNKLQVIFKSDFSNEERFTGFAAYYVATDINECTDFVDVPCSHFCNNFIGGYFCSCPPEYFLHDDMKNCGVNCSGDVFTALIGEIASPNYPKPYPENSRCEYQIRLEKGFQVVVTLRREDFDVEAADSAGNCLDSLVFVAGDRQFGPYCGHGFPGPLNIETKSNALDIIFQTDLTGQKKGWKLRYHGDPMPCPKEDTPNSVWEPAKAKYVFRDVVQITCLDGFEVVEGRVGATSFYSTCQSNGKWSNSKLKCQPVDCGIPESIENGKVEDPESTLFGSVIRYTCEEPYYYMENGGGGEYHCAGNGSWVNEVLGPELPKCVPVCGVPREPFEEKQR
Experiment: Human C1s enzyme assay
Type: biochemical
Settings: human complement C1s enzyme 1.16 nM, substrate Z-L-Lys-SBzl, A405; read-out: IC50 (Stars)
Outline: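 Thioesterase activity followed colorimetrically (DTNB, A405, 30-s reads) using 100 μM Z-L-Lys-SBzl substrate. Enzyme, human serum-derived C1s at 1.16 nM final, was incubated with test compound for 5 min, room temperature, pH 7.5 Tris buffer with 1 M NaCl. Rate-versus-concentration data fitted by nonlinear regression for IC50.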

For `C[C@H](Nc1cnc(-c2ccncc2)n(CC(=O)NCc2cc3cnccc3[nH]2)c1=O)c1ccc2oc3ccccc3c2c1` [Compound 315, (S)-N-((1H-pyrrolo[3,2-c]pyridin-2-yl)methyl)-2-(5-((1-(dibenzo[b,d]furan-2-yl)ethyl)-amino)-6-oxo-2-(pyridin-4-yl)-pyrimidin-1(6H)-yl)acetamide], which IC50 is on record?
Its IC50 is under 100 nM.

With `Cc1cnc(N[C@@H](C)c2ccc3oc4ccccc4c3c2)c(=O)n1CC(=O)NCc1cc2cnccc2[nH]1` [Compound 316, (S)-N-((1H-pyrrolo[3,2-c]pyridin-2-yl)methyl)-2-(3-((1-(dibenzo[b,d]furan-2-yl)ethyl)-amino)-6-methyl-2-oxopyrazin-1(2H)-yl)acetamide] as the molecule, how does the IC50 read?
The IC50 was under 100 nM.

For `Nc1cnc(-c2ccccc2)n(CC(=O)NCc2cc3cnccc3[nH]2)c1=O` [Compound 317, N-((1H-pyrrolo[3,2-c]pyridin-2-yl)methyl)-2-(5-amino-6-oxo-2-phenylpyrimidin-1(6H)-yl)-acetamide], which IC50 is on record?
The IC50 was under 100 nM.

Which IC50 does the source give for `C[C@@H](Nc1cnc(-c2ccccc2F)n(CC(=O)NCc2cc3cnccc3[nH]2)c1=O)c1ccc2oc3c(F)cccc3c2c1` [Compound 318, (R)—N-((1H-Pyrrolo[3,2-c]pyridine-2-yl)methyl)-2-(5-((1-(6-fluorodibenzo[b,d]furan-2-yl)ethyl)amino)-2-(2-fluorophenyl)-6-oxopyrimidin-1(6H)-yl)acetamide] here?
The IC50 was under 100 nM.

With `COc1ncc(N[C@H](C)c2ccc3oc4ccccc4c3c2)c(=O)n1CC(=O)NCc1cc2cnccc2[nH]1` [Compound 319, (R)—N-((1H-pyrrolo[3,2-c]pyridine-2-yl)methyl)-2-(5-((1-(dibenzo[b,d]furan-2-yl)ethyl)amino)-2-methoxy-6-oxopyrimidin-1(6H)-yl)acetamide] as the molecule, how does the IC50 read?
Its IC50 is over 1000 nM.

`C[C@@H](Nc1cnc(-c2ncco2)n(CC(=O)NCc2cc3cnccc3[nH]2)c1=O)c1ccc2oc3ccccc3c2c1` [Compound 320, (R)-N-((1H-pyrrolo[3,2-c]pyridin-2-yl)methyl)-2-(5-((1-(dibenzo[b,d]furan-2-yl)ethyl)-amino)-2-(oxazol-2-yl)-6-oxo-pyrimidin-1(6H)-yl)acetamide] was tested. Which IC50 did it give?
Its IC50 is under 100 nM.

For `C[C@@H](Nc1cnc(-c2ccccc2F)n(CC(=O)NCc2cc3cnccc3[nH]2)c1=O)c1coc(-c2ccccc2)n1` [Compound 321, (R)—N-((1H-pyrrolo[3,2-c]pyridine-2-yl)methyl)-2-(2-(2-fluorophenyl)-6-oxo-5-((1-(2-phenyloxazol-4-yl)ethyl)amino)pyrimidin-1(6H)-yl)acetamide], which IC50 is on record?
The IC50 was under 100 nM.

For `C[C@@H](Nc1ncc(-c2ccccc2F)n(CC(=O)NCc2cc3cnccc3[nH]2)c1=O)c1ccc2oc3ccccc3c2c1` [Compound 322, (R)-N-((1H-pyrrolo[3,2-c]pyridin-2-yl)methyl)-2-(3-((1-(dibenzo[b,d]furan-2-yl)ethyl)-amino)-6-(2-fluorophenyl)-2-oxopyrazin-1(2H)-yl)acetamide], which IC50 is on record?
Its IC50 is under 100 nM.

For `C[C@@H](Nc1cnc(-c2ccccn2)n(CC(=O)NCc2cc3cnccc3[nH]2)c1=O)c1ccc2oc3ccccc3c2c1` [Compound 323, (R)-N-((1H-pyrrolo[3,2-c]pyridin-2-yl)methyl)-2-(5-((1-(dibenzo[b,d]furan-2-yl)ethyl)-amino)-6-oxo-2-(pyridin-2-yl)-pyrimidin-1(6H)-yl)acetamide], which IC50 is on record?
The IC50 was under 100 nM.

With `C[C@@H](Nc1cnc(C2CCCC2)n(CC(=O)NCc2cc3cnccc3[nH]2)c1=O)c1ccc2oc3ccccc3c2c1` [Compound 324, (R)-N-((1H-pyrrolo[3,2-c]pyr-idin-2-yl)methyl)-2-(2-cyclo-pentyl-5-((1-(dibenzo[b,d]furan-2-yl)ethyl)amino)-6-oxo-pyrimidin-1(6H)-yl)acetamide] as the molecule, how does the IC50 read?
The IC50 was 100 to 1000 nM.

`C[C@@H](Nc1cnc(C2=CCCCC2)n(CC(=O)NCc2cc3cnccc3[nH]2)c1=O)c1ccc2oc3ccccc3c2c1` [Compound 325, (R)-N-((1H-pyrrolo[3,2-c]pyr-idin-2-yl)methyl)-2-(2-(cyclo-hex-1-en-1-yl)-5-((1-(dibenzo [b,d]furan-2-yl)ethyl)amino)-6-oxopyrimidin-1(6H)-yl)acet-amide] was tested. Which IC50 did it give?
Its IC50 is under 100 nM.

`C[C@@H](Nc1cnc(-c2ccco2)n(CC(=O)NCc2cc3cnccc3[nH]2)c1=O)c1ccc2oc3ccccc3c2c1` [Compound 326, (R)-N-((1H-pyrrolo[3,2-c]pyridin-2-yl)methyl)-2-(5-((1-(dibenzo[b,d]furan-2-yl)ethyl)-amino)-2-(furan-2-yl)-6-oxo-pyrimidin-1(6H)-yl)acetamide] was tested. Which IC50 did it give?
Its IC50 is under 100 nM.

With `C[C@@H](Nc1cnc(-c2cccs2)n(CC(=O)NCc2cc3cnccc3[nH]2)c1=O)c1ccc2oc3ccccc3c2c1` [Compound 327, (R)-N-((1H-pyrrolo[3,2-c]pyridin-2-yl)methyl)-2-(5-((1-(dibenzo[b,d]furan-2-yl)ethyl)-amino)-6-oxo-2-(thiophen-2-yl)pyrimidin-1(6H)-yl)acet-amide] as the molecule, how does the IC50 read?
Its IC50 is under 100 nM.

How did the IC50 turn out when `C[C@@H](Nc1cnc(-c2cnn(C)c2)n(CC(=O)NCc2cc3cnccc3[nH]2)c1=O)c1ccc2oc3ccccc3c2c1` [Compound 328, (R)-N-((1H-pyrrolo[3,2-c]pyridin-2-yl)methyl)-2-(5-((1-(dibenzo[b,d]furan-2-yl)ethyl)-amino)-2-(1-methyl-1H-pyr-azol-4-yl)-6-oxopyrimidin-1(6H)-yl)acetamide] was run?
Its IC50 is under 100 nM.

`C[C@@H](Nc1nccn(CC(=O)NCc2cc3cnccc3[nH]2)c1=O)c1ccc2oc3ccccc3c2c1` [Compound 329, (R)-N-((1H-pyrrolo[3,2-c]pyridin-2-yl)methyl)-2-(3-((1-(dibenzo[b,d]furan-2-yl)ethyl)-amino)-2-oxopyrazin-1(2H)-yl)acetamide] was tested. Which IC50 did it give?
The IC50 was 100 to 1000 nM.

How did the IC50 turn out when `O=C(Cn1c(C2CC2)ncc(NCc2ccc3oc4ccccc4c3c2)c1=O)NCc1cc2cnccc2[nH]1` [Compound 330, N-((1H-pyrrolo[3,2-c]pyridin-2-yl)methyl)-2-(2-cyclopropyl-5-((dibenzo[b,d]furan-2-yl-methyl)amino)-6-oxopyrimi-din-1(6H)-yl)acetamide] was run?
The IC50 was under 100 nM.

Which IC50 does the source give for `CC(C)[C@@H](Nc1cnc(-c2ccccc2F)n(CC(=O)NCc2cc3cnccc3[nH]2)c1=O)c1ccc2oc3ccccc3c2c1` [Compound 332, (R)—N-((1H-pyrrolo[3,2-c]pyridine-2-yl)methyl)-2-(5-((1-(dibenzo[b,d]furan-2-yl)-2-methylpropyl)amino)-2-(2-fluorophenyl)-6-oxopyrimidin-1(6H)-yl)acetamide] here?
The IC50 was over 1000 nM.

For `Cc1cn(CC(=O)NCc2cc3cnccc3[nH]2)c(=O)c(N[C@H](C)c2ccc3oc4ccccc4c3c2)n1` [Compound 333, (R)—N-((1H-pyrrolo[3,2-c]pyridine-2-yl)methyl)-2-(3-((1-(dibenzo[b,d]furan-2-yl)ethyl)amino)-5-methyl-2-oxopyrazin-1(2H)-yl)acetamide], which IC50 is on record?
The IC50 was under 100 nM.

Which IC50 does the source give for `C[C@@H](Nc1cnc(-c2ccncc2)n(CC(=O)NCc2cc3cnccc3[nH]2)c1=O)c1ccc2oc3ccccc3c2c1` [Compound 334, (R)-N-((1H-pyrrolo[3,2-c]pyridin-2-yl)methyl)-2-(5-((1-(dibenzo[b,d]furan-2-yl)ethyl)-amino)-6-oxo-2-(pyridin-4-yl)-pyrimidin-1(6H)-yl)acetamide] here?
The IC50 was under 100 nM.

How did the IC50 turn out when `C[C@@H](Nc1cnc(-c2cccnc2)n(CC(=O)NCc2cc3cnccc3[nH]2)c1=O)c1ccc2oc3ccccc3c2c1` [Compound 335, (R)-N-((1H-pyrrolo[3,2-c]pyridin-2-yl)methyl)-2-(5-((1-(dibenzo[b,d]furan-2-yl)ethyl)-amino)-6-oxo-2-(pyridin-3-yl)-pyrimidin-1(6H)-yl)acetamide] was run?
Its IC50 is under 100 nM.

Source: US20260184707A1, “PHARMACEUTICAL COMPOUNDS FOR THE TREATMENT OF COMPLEMENT MEDIATED DISORDERS” (ALEXION PHARMACEUTICALS, INC., priority 2022, published 2026)
